Source: patent EP1996603B1, “LIPID A ANTAGONISTS WITH ANTI-SEPTIC SHOCK, ANTI-INFLAMMATORY, ANTI-ISCHEMIA AND ANALGESIC ACTIVITY” (Università Degli Studi Di Milano - Bicocca, priority 2006, dated 2007)
“Also recorded” adds a separate entry of the source.

Key:
BMΦ, BMDC and D1 cells = experiment: Lipid A-induced TNFα production in macrophages and dendritic cells (ELISA); assay type: cell-based, Mouse
Description: BMΦ and DC were derived from bone marrow cells and divided in two separate cultures. For DC preparation bone marrow cells were cultured in complete IMDM supplemented with 10% supernatant of GM-CSF-transduced B16 tumor cells [R. Soiffer, T. Lynch, M. Mihm, K. Jung, C. Rhuda, J. C. Schmollinger, F. S. Hodi, L. Liebster, P. Lam, S. Mentzer, S. Singer, K. K. Tanabe, A. B. Cosimi, R. Duda, A. Sober, A. Bhan, J. Daley, D. Neuberg, G. Parry, J. Rokovich, L. Richards, J. Drayer, A. Berns, S. Clift, L. K. Cohen, R. C. Mulligan, G. Dranoff, Proc. Natl. Acad. Sci. U S A. 1998, 95(22), 13141-13146]. Fresh medium was added every 2 d. After 7-10 d of culture, cells were analyzed for CD11c expression and used in assays when 90% were CD11c positive. For BMΦ preparation bone marrow cells were cultured in complete IMDM supplemented with 10% supernatant of M-CSF-transduced NIH3T3 cells. Also in this case, fresh medium was added every 2 d. After 7-10 d of culture, cells were analyzed for Mac1 expression and used in assays when at least 90% were Mac1 positive. D1 cells were cultured in complete IMDM supplemented with 10% supernatant of GM-CSF-transduced B16 tumor cells.
D1 cells, BMDC and MΦ were plated in 48 well plates at a concentration of 200000 cells/well in 200µL of medium. One or two hours after plating they were treated with different amounts of compounds Ic and Id for 30 min and then stimulated with Lipid A from Escherichia coli (F583, Rd mutant Sigma, 0.5µM) for 18 h.
Given the pivotal role of early-activated DC and MΦ in directing inflammatory reactions, compounds Ia, Ic and Id were tested for their ability to antagonize the stimulatory activity of lipid A on bone marrow derived macrophages (BMΦ) and DC (BMDC) by interfering with their capacity to induce TNFα production. As source of DC, D1 cells, a long term growth factor (GM-CSF)-dependent DC line [C. Winzler et al. J. Exp. Med. 1997, 185, 317-327] were also used. BMΦ, BMDC and D1 cells were stimulated with lipid A (0.5 µM) after a pre-exposure to compounds Ia, Ic and Id and the amount of TNFα released in the supernatant was measured by ELISA.

TLR9 = experiment: TNFα production after stimulation with CpG (TLR9 selectivity); assay type: cell-based, Mouse; details: stimulation through CpG, recognized by TLR9
Description: • Figure 1. Antagonistic activity of compounds Ia, Ic and Id on lipid A-stimulated cytokine production in BMDC, BMØ and D1 cells. TNFα production was measured in the supernatants 24 h later. From the right: lipid A (0.5µM), cells treated with lipid A alone; DMSO: cells incubated in the presence of complete medium plus DMSO; inhibitor 50 µM, cells treated only with monosaccharides Ia, Ic and Id; other columns, lipid A + compounds […] at increasing doses. The data represent means and standard deviations of triplicate wells. This is a representative of three independent experiments. *, p < 0.05; **, p < 0.01; ***, p< 0.001. • Figure 2. TLR-4 selectivity of monosaccharide Id. […] IL-1β was measured in the supernatants by ELISA. […] Lower panels, TNFα production measured by ELISA 24 h after stimulation with CpG (selective for TLR-9) or PAM3Cys-SK4 (selective for TLR-2) in the presence of compound Id. […] The cells were then analyzed by FACS for the presence of annexin V and propidium iodide (PI) double positive cells. […] NF-kB activation was evaluated in the nuclear extract 2 h later and expressed as optical density (OD) at 450 nm. […] Effect of different doses of compound Id on carrageenan induced edema in mice measured 4h after the exposure and expressed as difference between the paw volume of treated paw versus the contralateral paw. […]

[1] = Solubility in the aqueous media used in the tests; assay type: physicochemical; details: compared with Ia and Ic

CCCCCCCCCCCCCCO[C@H]1[C@@H](OC)O[C@H](C[N+](C)(C)C2CCCC2)[C@@H](O)[C@@H]1OCCCCCCCCCCCCCC [Compound Id, methyl 6-deoxy-6-N,N',N"-dimethylcyclopentylammonium-2,3-di-O-tetradecyl-α-D-glucopyranoside]
direct inflammatory function (stimulating cytokines production) (BMΦ, BMDC and D1 cells; cells treated with compound alone, without lipid A): did not show any direct inflammatory function | relative potency as inhibitor of lipid A (BMΦ, BMDC and D1 cells; comparison between compounds Ia, Ic and Id): more potent than Ic | TNFα production (BMΦ, BMDC and D1 cells; stimulation with lipid A (0.5 µM) after pre-exposure to compound, TNFα released in the supernatant measured by ELISA, BMΦ, BMDC and D1 cells): interfered with lipid A's action in a dose-dependent manner; also recorded: lower activity; also recorded: inhibited | TNFα production (TLR9): not inhibited | solubility in the aqueous media used in the tests [1]: highest solubility
